Consider eleven molecules from ChEMBL document CHEMBL2380210, “Discovery of natural estrogen receptor modulators with structure-based virtual screening” (Bioorg Med Chem Lett, 2013).

Each structure is given as a SMILES string. Active and inactive are the calls of the source. No cut-off for these calls is given here.

Test [1] addresses T1, Estrogen receptor (Homo sapiens, UniProt P03372).
T1 sequence (P03372 whole entry): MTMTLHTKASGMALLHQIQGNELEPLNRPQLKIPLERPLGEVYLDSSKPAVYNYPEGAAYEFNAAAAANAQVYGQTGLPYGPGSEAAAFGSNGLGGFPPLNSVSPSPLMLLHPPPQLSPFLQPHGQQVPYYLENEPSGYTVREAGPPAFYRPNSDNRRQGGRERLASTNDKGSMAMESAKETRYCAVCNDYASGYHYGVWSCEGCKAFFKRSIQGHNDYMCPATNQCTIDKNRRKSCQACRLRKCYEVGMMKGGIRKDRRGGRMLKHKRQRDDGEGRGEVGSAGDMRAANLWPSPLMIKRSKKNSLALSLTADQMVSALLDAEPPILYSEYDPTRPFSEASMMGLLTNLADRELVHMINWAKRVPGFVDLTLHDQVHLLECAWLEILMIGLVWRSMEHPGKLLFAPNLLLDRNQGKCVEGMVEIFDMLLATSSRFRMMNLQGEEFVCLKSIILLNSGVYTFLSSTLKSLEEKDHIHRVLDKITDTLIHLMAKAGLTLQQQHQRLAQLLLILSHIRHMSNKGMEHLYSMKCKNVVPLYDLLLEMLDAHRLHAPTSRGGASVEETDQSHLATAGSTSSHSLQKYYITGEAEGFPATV
As to the kind of experiment: Antagonist activity at human estrogen receptor-alpha by yeast two-hybrid assay in presence of SRC1.

In test [2] the target is T2, Estrogen receptor beta (Homo sapiens, UniProt Q92731).
Description: Antagonist activity at human estrogen receptor-beta by yeast two-hybrid assay in presence of SRC1
In test [3] the target is T3, Estrogen receptor (Homo sapiens) (UniProt P03372).
T3 sequence (whole entry): T1 sequence (P03372 whole entry)
Kind of test: Antagonist activity at human estrogen receptor-alpha at 25 uM by yeast two-hybrid assay in presence of SRC1.

The target in test [4] is T1, Estrogen receptor. Kind of test: Agonist activity at human estrogen receptor-alpha by yeast two-hybrid assay in presence of SRC1.
The species entered for test [5] is Homo sapiens. As to the kind of experiment: Selectivity ratio of EC50 for human estrogen receptor-alpha to EC50 for human estrogen receptor-beta.
In test [6] the target is T2, Estrogen receptor beta. This is another data set of the same source.
Description: Agonist activity at human estrogen receptor-beta by yeast two-hybrid assay in presence of SRC1

T2 sequence (Q92731 whole entry): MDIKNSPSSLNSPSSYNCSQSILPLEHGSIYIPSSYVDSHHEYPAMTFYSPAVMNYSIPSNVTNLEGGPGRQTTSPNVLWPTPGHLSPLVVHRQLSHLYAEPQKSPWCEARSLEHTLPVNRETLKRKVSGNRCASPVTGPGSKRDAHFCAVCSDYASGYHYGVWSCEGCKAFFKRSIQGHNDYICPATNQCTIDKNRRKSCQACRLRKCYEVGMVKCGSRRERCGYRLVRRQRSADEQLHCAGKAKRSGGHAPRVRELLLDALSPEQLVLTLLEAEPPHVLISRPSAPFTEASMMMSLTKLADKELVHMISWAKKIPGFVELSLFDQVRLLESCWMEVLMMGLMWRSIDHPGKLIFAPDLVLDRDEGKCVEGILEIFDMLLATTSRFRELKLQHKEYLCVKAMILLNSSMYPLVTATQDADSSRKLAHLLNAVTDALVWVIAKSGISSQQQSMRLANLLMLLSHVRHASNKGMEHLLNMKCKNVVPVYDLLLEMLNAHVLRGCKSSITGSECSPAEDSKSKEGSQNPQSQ

Consider `C/C(=C/C(=O)C[C@@H](C)[C@]1(C)CC[C@@]2(C)C3=CCC4C(C)(C)C(=O)CC[C@]4(C)[C@@H]3CCC21)C(=O)O` (stereo partly drawn), for which the EC50 in test [1] was determined as 8.32 µM; in test [2], 2.76 µM.
Consider `CC(C)(O)c1ccc2c(c1)C(=O)C[C@H]1[C@@](C)(C(=O)O)CCC[C@]21C`, for which the 50% effective concentration (EC50) was 8.17 µM in test [1] and 4.28 µM in test [2].
In test [2], `C=C(C)[C@@H]1[C@H](O)C[C@@H]2C(=CC[C@]3(C)[C@@H]([C@H](C)CC/C=C(\C)C(=O)OC)CC[C@@]23C)[C@@]1(C)CCC(=O)O` showed an EC50 of 72.4 µM. The result in test [3] was inactive.
For `CCOC(=O)c1ccc(O)cc1` [ETHYLPARABEN], the concentration for a half-maximal effect (EC50) was 38.2 µM in test [4] and 1.86 µM in test [6]. Also, the Ratio EC50 in test [5] came to 20.
`C=C(C)[C@@H]1[C@H](O)C[C@@H]2[C@]3(CC[C@]4(C)[C@@H]([C@H](C)CC/C=C(\C)C(=O)O)CC[C@@]24C)C[C@]13CCC(=O)O` had a half-maximal effective concentration (EC50) in test [2] of 33.8 µM. Also, the outcome in test [3] was inactive.
For `C=C(C)[C@@H]1[C@H](O)C[C@@H]2C(=CC[C@]3(C)[C@@H]([C@H](C)CC/C=C(\C)C(=O)O)CC[C@@]23C)[C@@]1(C)CCC(=O)O` the same measures were 25.3 µM and “inactive”.
Consider `O=C(Cc1ccc(O)cc1)c1ccc(O)cc1O`, for which the concentration for a half-maximal effect (EC50) in test [4] stood at 2.03 µM; in test [6], 0.5 µM.
Take `C/C(=C/C(=O)C[C@@H](C)[C@]1(C)CC[C@@]2(C)C3=CCC4C(C)(C)[C@H](O)CC[C@]4(C)[C@@H]3CC=C21)C(=O)O` (stereo partly drawn): the values for the EC50 in test [1] and in test [2] were 12.6 µM and 17.7 µM, respectively.
For `C=C(C)[C@@H]1[C@@H]2O[C@@H]2[C@@H]2[C@]3(CC[C@]4(C)[C@@H]([C@H](C)CC/C=C(\C)C(=O)O)CC[C@@]24C)C[C@]13CCC(=O)O` the same measures were 2.55 µM and 4.68 µM.
The matching figures for `C=CCc1ccc(OC)c(-c2cc(C=O)cc(O)c2O)c1`: 48.4 µM and 49.2 µM.
On to `O=C(O)/C=C/c1ccc(O)cc1` [COUMARIC ACID], for which the EC50 in test [4] amounted to 16.1 µM; in test [6], 4.89 µM.

As a reminder, the EC50 is the concentration needed to bring the measured effect to its halfway point.
